Results taken from patent US20240158391A1, “DERIVATIVES OF 4-(IMIDAZO[1,2-A]PYRIDIN-3-YL)-N-(PYRIDIN-3-YL) PYRIMIDIN-2- AMINE FOR TREATING PROLIFERATIVE DISEASES AND CONDITIONS” (AUCENTRA THERAPEUTICS PTY LTD, priority 2019, published 2024).

Key:
MV-4-11 = experiment: Proliferation assay (resazurin, leukemia cell lines), MV-4-11; format: cell-based; settings: Homo sapiens, MV4-11, read-out: 72 h Growth inhibition GI50, MV-4-11 cells
From the text: The following compounds were used as comparators.

FLT3-ITD = target: T1, FLT3-ITD (Homo sapiens, UniProt P36888); experiment: ADP Glo kinase assay, FLT3-ITD; format: biochemical; settings: Km ATP 100 μM, read-out: Enzymatic inhibition, Ki, FLT3-ITD
T1 sequence (P36888 1-993): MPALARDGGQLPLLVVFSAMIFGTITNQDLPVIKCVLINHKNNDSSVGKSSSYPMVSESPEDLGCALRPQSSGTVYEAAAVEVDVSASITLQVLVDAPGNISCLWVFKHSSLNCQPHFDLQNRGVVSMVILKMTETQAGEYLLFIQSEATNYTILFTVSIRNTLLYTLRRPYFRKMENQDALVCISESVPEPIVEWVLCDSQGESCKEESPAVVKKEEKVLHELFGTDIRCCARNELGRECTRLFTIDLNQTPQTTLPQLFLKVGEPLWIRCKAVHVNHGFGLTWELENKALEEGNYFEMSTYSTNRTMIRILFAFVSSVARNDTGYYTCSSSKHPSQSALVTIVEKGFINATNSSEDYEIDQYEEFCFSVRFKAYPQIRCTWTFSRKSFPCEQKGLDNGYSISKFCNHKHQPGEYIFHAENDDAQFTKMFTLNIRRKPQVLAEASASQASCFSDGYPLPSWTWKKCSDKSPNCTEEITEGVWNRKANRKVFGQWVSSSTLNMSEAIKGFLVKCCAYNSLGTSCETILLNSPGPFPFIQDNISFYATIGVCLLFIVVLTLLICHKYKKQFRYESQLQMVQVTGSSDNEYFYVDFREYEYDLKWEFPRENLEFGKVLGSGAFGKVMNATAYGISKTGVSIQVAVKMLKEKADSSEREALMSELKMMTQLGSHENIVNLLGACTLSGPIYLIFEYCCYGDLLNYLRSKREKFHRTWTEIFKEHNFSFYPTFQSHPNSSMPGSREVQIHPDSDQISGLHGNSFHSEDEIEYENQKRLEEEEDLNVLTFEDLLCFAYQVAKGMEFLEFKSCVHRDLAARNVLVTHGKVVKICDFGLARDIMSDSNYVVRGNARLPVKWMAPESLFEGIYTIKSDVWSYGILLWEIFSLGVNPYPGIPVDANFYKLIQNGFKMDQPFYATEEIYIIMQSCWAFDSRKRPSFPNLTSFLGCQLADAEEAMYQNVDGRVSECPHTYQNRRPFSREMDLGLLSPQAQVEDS
Procedure, shortened: (§1)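 Dose-response used a threefold serial dilution of ten concentrations, 10-0.0005 μM, carrying 0.5% DMSO. Each room-temperature kinase reaction ran for a time optimised per enzyme and was then halted by adding ADP Glo reagent.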

CDK7/CyclinH/Mat1 = CDK7/CyclinH/Mat1 (Homo sapiens, UniProt P50613); experiment: ADP Glo kinase assay, CDK7/CyclinH/Mat1; format: biochemical; settings: for remaining activity at 1 µM: compound at 1 μM, read-out: Residual enzymatic activity (%) at 1 μM, CDK7 H; for Ki: Km ATP, read-out: Enzymatic inhibition, Ki, CDK7 H
Procedure, shortened: as §1

CDK6/CyclinD3 = CDK6/CyclinD3 (Homo sapiens, UniProt Q00534); experiment: ADP Glo kinase assay, CDK6/CyclinD3; format: biochemical; settings: for remaining activity at 1 µM: compound at 1 μM, read-out: Residual enzymatic activity (%) at 1 μM, CDK6 D3; for Ki: Km ATP, read-out: Enzymatic inhibition, Ki, CDK6 D3
Procedure, shortened: as §1

CDK4/CyclinD1 = CDK4/CyclinD1 (Homo sapiens, UniProt P11802); experiment: ADP Glo kinase assay, CDK4/CyclinD1; format: biochemical; settings: for remaining activity at 1 µM: compound at 1 μM, read-out: Residual enzymatic activity (%) at 1 μM, CDK4 D1; for Ki: Km ATP, read-out: Enzymatic inhibition, Ki, CDK4 D1
Procedure: Test compounds are used in 1:3 serial dilutions for 10 concentrations (from 10-0.0005 μM) in 0.5% DMSO. […] The kinase reactions are run for optimised time period at room temperature and then the reaction is stopped by adding 5 μL of ADP Glo reagent.

CDK2/CyclinA2 = CDK2/CyclinA2 (Homo sapiens, UniProt P24941); experiment: ADP Glo kinase assay, CDK2/CyclinA2; format: biochemical; settings: for remaining activity at 1 µM: compound at 1 μM, read-out: Residual enzymatic activity (%) at 1 μM, CDK2 A; for Ki: Km ATP, read-out: Enzymatic inhibition, Ki, CDK2 A
Procedure, shortened: as §1

CDK9/CyclinT1 = CDK9/CyclinT1 (Homo sapiens, UniProt P50750); experiment: ADP Glo kinase assay, CDK9/CyclinT1; format: biochemical; settings: CDK9/CyclinT1; Km ATP; read-out: Enzymatic inhibition, Ki, CDK9 T1
Procedure, shortened: as §1

CDK1/CyclinB = CDK1/CyclinB (Homo sapiens, UniProt P06493); experiment: ADP Glo kinase assay, CDK1/CyclinB; format: biochemical; settings: for remaining activity at 1 µM: compound at 1 μM, read-out: Residual enzymatic activity (%) at 1 μM, CDK1 B; for Ki: Km ATP, read-out: Enzymatic inhibition, Ki, CDK1 B
Procedure, shortened: as §1

Sequence of CDK7/CyclinH/Mat1 (P50613 whole entry, species assumed): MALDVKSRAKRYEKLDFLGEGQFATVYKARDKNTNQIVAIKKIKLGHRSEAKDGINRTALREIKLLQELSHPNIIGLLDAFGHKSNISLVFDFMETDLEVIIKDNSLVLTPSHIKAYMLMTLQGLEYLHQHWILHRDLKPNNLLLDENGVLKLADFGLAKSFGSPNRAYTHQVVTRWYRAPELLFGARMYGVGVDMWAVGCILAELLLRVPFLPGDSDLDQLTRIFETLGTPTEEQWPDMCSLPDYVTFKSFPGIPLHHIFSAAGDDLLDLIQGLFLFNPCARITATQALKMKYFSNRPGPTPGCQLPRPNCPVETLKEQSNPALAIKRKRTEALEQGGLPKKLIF
Sequence of CDK7/CyclinH/Mat1 (P51946 whole entry partner, species assumed): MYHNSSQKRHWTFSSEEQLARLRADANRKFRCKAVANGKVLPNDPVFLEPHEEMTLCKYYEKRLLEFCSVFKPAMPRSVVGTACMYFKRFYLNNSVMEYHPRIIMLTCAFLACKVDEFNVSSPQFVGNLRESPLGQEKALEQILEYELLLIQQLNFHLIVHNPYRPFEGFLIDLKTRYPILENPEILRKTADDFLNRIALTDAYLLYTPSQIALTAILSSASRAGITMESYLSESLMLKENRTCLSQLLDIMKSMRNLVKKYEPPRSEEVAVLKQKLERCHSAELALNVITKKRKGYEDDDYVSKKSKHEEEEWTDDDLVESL
Sequence of CDK7/CyclinH/Mat1 (P51948 whole entry partner, species assumed): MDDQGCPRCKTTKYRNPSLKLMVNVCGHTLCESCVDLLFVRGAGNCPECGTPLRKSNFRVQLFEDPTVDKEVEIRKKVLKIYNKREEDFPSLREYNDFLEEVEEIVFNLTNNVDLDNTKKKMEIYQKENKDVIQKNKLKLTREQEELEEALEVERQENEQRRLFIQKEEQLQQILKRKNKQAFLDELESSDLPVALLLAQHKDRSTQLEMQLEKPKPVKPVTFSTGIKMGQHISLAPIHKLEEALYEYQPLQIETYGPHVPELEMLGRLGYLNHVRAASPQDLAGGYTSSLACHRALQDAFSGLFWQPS
Sequence of CDK1/CyclinB (P06493 whole entry, species assumed): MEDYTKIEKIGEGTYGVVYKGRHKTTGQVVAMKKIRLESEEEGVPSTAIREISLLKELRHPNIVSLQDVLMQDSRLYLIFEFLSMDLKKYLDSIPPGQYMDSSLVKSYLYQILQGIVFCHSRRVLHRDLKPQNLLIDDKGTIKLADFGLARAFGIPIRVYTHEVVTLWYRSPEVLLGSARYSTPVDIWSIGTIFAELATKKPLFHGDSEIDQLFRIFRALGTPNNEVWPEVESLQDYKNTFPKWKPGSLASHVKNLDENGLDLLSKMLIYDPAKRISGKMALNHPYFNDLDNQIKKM
Sequence of CDK1/CyclinB (P14635 whole entry partner, species assumed): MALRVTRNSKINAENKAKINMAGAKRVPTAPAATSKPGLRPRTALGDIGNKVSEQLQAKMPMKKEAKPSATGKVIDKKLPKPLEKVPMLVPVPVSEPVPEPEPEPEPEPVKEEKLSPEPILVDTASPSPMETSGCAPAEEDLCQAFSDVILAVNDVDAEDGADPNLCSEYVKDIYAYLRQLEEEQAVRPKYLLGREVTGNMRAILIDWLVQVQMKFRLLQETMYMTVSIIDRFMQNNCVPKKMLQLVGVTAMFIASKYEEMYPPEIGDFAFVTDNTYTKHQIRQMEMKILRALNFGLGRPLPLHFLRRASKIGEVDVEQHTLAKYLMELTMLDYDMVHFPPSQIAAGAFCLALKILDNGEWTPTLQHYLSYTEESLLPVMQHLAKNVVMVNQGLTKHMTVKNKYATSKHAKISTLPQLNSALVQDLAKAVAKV
Sequence of CDK9/CyclinT1 (P50750 whole entry, species assumed): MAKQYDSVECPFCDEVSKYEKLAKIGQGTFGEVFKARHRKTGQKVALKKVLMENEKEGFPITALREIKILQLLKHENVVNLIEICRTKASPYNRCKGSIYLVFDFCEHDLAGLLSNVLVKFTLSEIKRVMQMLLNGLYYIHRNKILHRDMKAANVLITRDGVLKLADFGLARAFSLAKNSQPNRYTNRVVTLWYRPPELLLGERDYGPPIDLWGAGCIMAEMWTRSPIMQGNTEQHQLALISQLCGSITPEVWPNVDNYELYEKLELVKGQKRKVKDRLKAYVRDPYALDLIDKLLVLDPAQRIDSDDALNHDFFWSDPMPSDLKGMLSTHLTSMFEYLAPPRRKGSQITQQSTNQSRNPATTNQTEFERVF
Sequence of CDK9/CyclinT1 (O60563 whole entry partner, species assumed): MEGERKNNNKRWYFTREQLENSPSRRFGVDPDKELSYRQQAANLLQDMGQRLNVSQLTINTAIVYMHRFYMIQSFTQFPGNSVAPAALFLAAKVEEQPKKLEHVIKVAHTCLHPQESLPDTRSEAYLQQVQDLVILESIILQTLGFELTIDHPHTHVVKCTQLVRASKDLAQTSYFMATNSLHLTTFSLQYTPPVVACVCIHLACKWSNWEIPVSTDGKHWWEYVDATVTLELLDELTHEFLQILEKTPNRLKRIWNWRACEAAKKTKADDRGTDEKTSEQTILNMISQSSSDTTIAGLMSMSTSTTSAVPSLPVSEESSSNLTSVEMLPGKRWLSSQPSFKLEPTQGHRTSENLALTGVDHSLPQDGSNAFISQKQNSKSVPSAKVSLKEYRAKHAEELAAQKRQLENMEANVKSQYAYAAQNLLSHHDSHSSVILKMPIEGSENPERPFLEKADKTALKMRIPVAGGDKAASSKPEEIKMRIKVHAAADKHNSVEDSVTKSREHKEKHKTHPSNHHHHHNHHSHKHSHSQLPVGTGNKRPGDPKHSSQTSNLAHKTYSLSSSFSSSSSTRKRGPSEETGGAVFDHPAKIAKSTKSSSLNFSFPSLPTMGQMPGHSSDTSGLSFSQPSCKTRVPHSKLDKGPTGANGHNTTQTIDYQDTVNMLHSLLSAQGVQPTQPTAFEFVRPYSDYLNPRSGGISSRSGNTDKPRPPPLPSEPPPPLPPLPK
Sequence of CDK4/CyclinD1 (P11802 whole entry, species assumed): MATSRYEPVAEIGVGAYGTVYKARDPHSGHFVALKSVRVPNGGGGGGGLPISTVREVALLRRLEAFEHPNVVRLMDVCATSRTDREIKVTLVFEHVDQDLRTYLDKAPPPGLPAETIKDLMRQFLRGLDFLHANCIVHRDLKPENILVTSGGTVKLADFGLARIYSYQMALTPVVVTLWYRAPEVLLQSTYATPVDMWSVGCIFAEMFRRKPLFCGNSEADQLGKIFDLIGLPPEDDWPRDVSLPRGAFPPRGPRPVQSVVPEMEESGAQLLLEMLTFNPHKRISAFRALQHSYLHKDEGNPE
Sequence of CDK4/CyclinD1 (P24385 whole entry partner, species assumed): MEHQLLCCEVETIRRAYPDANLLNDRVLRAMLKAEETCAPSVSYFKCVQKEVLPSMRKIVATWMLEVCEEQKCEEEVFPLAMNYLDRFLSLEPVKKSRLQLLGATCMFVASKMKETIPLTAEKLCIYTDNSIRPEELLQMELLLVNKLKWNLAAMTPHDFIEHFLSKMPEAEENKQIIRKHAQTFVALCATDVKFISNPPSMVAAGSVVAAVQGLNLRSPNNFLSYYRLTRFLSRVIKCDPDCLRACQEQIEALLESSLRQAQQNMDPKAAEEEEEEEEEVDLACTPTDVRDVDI
Sequence of CDK6/CyclinD3 (Q00534 whole entry, species assumed): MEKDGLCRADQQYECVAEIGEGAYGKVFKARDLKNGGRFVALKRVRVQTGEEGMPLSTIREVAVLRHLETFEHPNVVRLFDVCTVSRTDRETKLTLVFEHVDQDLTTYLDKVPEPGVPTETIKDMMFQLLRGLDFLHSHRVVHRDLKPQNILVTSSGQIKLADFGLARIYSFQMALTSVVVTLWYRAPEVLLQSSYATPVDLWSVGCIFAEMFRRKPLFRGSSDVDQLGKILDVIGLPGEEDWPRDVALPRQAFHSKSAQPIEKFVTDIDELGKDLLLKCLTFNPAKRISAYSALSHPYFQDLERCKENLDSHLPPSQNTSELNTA
Sequence of CDK6/CyclinD3 (P30281 whole entry partner, species assumed): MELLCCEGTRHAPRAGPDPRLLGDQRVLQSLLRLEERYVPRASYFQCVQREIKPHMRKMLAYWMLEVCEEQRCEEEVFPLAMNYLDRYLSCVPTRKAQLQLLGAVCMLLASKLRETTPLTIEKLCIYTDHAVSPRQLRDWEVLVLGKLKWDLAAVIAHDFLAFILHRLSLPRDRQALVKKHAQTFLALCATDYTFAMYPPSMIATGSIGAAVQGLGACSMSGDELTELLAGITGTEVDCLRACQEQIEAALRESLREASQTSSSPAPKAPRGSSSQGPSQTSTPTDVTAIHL

GI50 (MV-4-11) [µM]	Ki (FLT3-ITD) [µM]	remaining activity at 1 µM (CDK7/CyclinH/Mat1) [%]	remaining activity at 1 µM (CDK6/CyclinD3) [%]	remaining activity at 1 µM (CDK4/CyclinD1) [%]	remaining activity at 1 µM (CDK2/CyclinA2) [%]	Ki (CDK9/CyclinT1) [µM]	remaining activity at 1 µM (CDK1/CyclinB) [%]	Ki (CDK7/CyclinH/Mat1) [µM]	Ki (CDK6/CyclinD3) [µM]	Ki (CDK1/CyclinB) [µM]	Ki (CDK4/CyclinD1) [µM]	Ki (CDK2/CyclinA2) [µM]	SMILES
0.92	> 1	92	47	92	86	0.33	100						Fc1cnc(Nc2ccc(Cl)nc2)nc1-c1cnc2ccc(-c3ccccc3)cn12 [Compound 34, N-(6-Chloropyridin-3-yl)-5-fluoro-4-(6-phenylimidazo[1,2-a]pyridin-3-yl)pyrimidin-2-amine]
0.105	0.09	38	64	95	46	0.065	99						CN1CCN(Cc2ccc(Nc3nccc(-c4cnc5ccc(-c6ccccc6)cn45)n3)cn2)CC1 [Compound 78, N-(6-((4-Methylpiperazin-1-yl)methyl)pyridin-3-yl)-4-(6-phenylimidazo[1,2-a]pyridin-3-yl)pyrimidin-2-amine]
0.017	0.004			83	33	0.016		1.69	> 5	0.776			CS(=O)(=O)N1CCN(c2ccc(Nc3nccc(-c4cnc5ccc(-c6cccnc6)cn45)n3)cn2)CC1 [Compound 19, N-(6-(4-(Methylsulfonyl)piperazin-1-yl)pyridin-3-yl)-4-(6-(pyridin-3-yl)imidazo[1,2-a]pyridin-3-yl)pyrimidin-2-amine]
0.013	0.007					0.029		1.72	0.779	0.865	0.38	0.156	CN1CCN(c2ccc(Nc3nccc(-c4cnc5ccc(F)cn45)n3)cn2)CC1 [Compound 12, 4-(6-Fluoroimidazo[1,2-a]pyridin-3-yl)-N-(6-(4-methylpiperazin-1-yl)pyridin-3-yl) pyrimidin-2-amine]
0.019	0.031					0.006		> 5	> 5	> 5	> 0.5	2.86	CN1CCN(c2ccc(Nc3nccc(-c4cnc5ccc(-c6cncnc6)cn45)n3)cn2)CC1 [Compound 8, N-(6-(4-Methylpiperazin-1-yl)pyridin-3-yl)-4-(6-(pyrimidin-5-yl)imidazo[1,2-a]pyridin-3-yl)pyrimidin-2-amine]
0.102	0.06		59	81	37	0.06	92	0.222					CCN1CCN(Cc2ccc(Nc3nccc(-c4cnc5ccc(-c6ccccc6)cn45)n3)cn2)CC1 [Compound 80, N-(6-((4-Ethylpiperazin-1-yl)methyl)pyridin-3-yl)-4-(6-phenylimidazo[1,2-a]pyridin-3-yl)pyrimidin-2-amine]
0.262	0.18	93	99	94		0.163	90					0.052	COC(=O)c1ccc(Nc2nccc(-c3cnc4ccc(Br)cn34)n2)cn1 [Compound 82, Methyl 5-((4-(6-bromoimidazo[1,2-a]pyridin-3-yl)pyrimidin-2-yl)amino)picolinate]
0.025	0.08	71	31	92	62	0.31	21						CC(=O)N1CCN(c2ccc(Nc3nccc(-c4cnc5ccc(-c6ccncc6)cn45)n3)cn2)CC1 [Compound 46, 1-(4-(5-((4-(6-(Pyridin-4-yl)imidazo[1,2-a]pyridin-3-yl)pyrimidin-2-yl)amino)pyridin-2-yl)piperazin-1-yl)ethan-1-one]
0.006	0.005					0.01		0.77	0.243	0.199	0.094	0.038	CN1CCN(c2ccc(Nc3nccc(-c4cnc5ccc(Cl)cn45)n3)cn2)CC1 [Compound 22, 4-(6-Chloroimidazo[1,2-a]pyridin-3-yl)-N-(6-(4-methylpiperazin-1-yl)pyridin-3-yl) pyrimidin-2-amine]
0.037	0.091		53	92	27	0.261	60	> 5					Brc1ccc2ncc(-c3ccnc(Nc4ccc(N5CCCC5)nc4)n3)n2c1 [Compound 26, 4-(6-Bromoimidazo[1,2-a]pyridin-3-yl)-N-(6-(pyrrolidin-1-yl)pyridin-3-yl)pyrimidin-2-amine]
0.233	0.065		45	76		0.086	61	0.314				1.12	CN1CCN(c2ccc(Nc3ncc(F)c(-c4cnc5ccc(-c6ccccc6)cn45)n3)cn2)CC1 [Compound 28, 5-Fluoro-N-(6-(4-methylpiperazin-1-yl)pyridin-3-yl)-4-(6-phenylimidazo[1,2-a]pyridin-3-yl)pyrimidin-2-amine]
0.02	0.04	78	86	54	41	0.102	82						CCCNc1ccc(Nc2nccc(-c3cnc4ccc(Br)cn34)n2)cn1 [Compound 74, N^5-(4-(6-Bromoimidazo[1,2-a]pyridin-3-yl)pyrimidin-2-yl)-N^2-propylpyridine-2,5-diamine]
0.038	0.07		27	48		0.057	70	0.168				0.042	CCN1CCN(Cc2ccc(Nc3nccc(-c4cnc5ccc(Br)cn45)n3)cn2)CC1 [Compound 79, 4-(6-Bromoimidazo[1,2-a]pyridin-3-yl)-N-(6-((4-ethylpiperazin-1-yl)methyl)pyridin-3-yl)pyrimidin-2-amine]
0.017	> 0.5	81	38	92	51	0.171	94						CC(=O)N1CCN(c2ccc(Nc3nccc(-c4cnc5ccc(-c6cccc7[nH]ccc67)cn45)n3)cn2)CC1 [Compound 49, 1-(4-(5-((4-(6-(1H-Indol-4-yl)imidazo[1,2-a]pyridin-3-yl)pyrimidin-2-yl)amino)pyridin-2-yl)piperazin-1-yl)ethan-1-one]
